Test results reported in patent publication US20250263426A1, “PDE4B INHIBITOR AND USE THEREOF” (Xizang Haisco Pharmaceutical Co., Ltd., priority 2022, published 2025).
Where two headings read alike, the source gives them in different places.

How the values were obtained:
[1] = target: PDE4B1 (Homo sapiens (Human), UniProt Q07343); assay: Effect of compounds on PDE4B1 activity (IMAP fluorescence polarization kit); assay type: biochemical
Experimental: The effect of compounds on PDE4B1 activity was detected using a fluorescence polarization kit (IMAP FP IPP Explorer KIT, Molecular Device, Cat #R8124). The IMAP Reaction Buffer containing 0.1% BSA (5×) in the kit was diluted into a 1-fold reaction buffer containing 1 mM DTT. 0.12 nM PDE4B1 (BPS, Cat #60041) was added to the 1-fold reaction buffer to form a 2-fold enzyme solution. 10 μL of the 2-fold enzyme solution was added to wells of a 384-well reaction plate. For the negative control well, 10 μL of the 1-fold reaction buffer was used instead of the enzyme solution. Centrifugation at 1000 rpm for 1 minute and incubation at room temperature for 15 minutes were carried out. 0.2 uM FAM-labeled cAMP (FAM-cAMP, Molecular Device, Cat #R7506) was added to the 1-fold reaction buffer to form a 2-fold substrate solution. 10 μL of the 2-fold substrate solution was added to each well of the 384-well reaction plate. Centrifugation at 1000 rpm for 1 minute was carried out. A reaction was carried out at room temperature for 20 minutes. IMAP Progressive Binding Buffer A (5×), IMAP Progressive Binding Buffer B (5×), and IMAP Progressive Binding Reagent (provided by IMAP FP IPP Explorer Kit) were prepared into a reaction stop solution according to the instructions for use. 60 μL of an […] reaction stop solution was added to each well of the 384-well reaction plate to stop the reaction, and the reaction product was centrifuged at 1000 rpm for 1 minute. Incubation at room temperature in the dark for 60 minutes was carried out. The mP values (Ex480/Em535 (s), Em535 (p)) were read by a microplate reader (Envision).
FP was usually represented by mP value. mP value for FP measurement=1000*(S−G*P)/(S+G*P) • S: fluorescence intensity in parallel direction • P: fluorescence intensity in perpendicular direction • G: G factor=1
(§1) [formula] • mP(sample): mP of the test compound in a reaction well • mP(negative control): mP in the negative control well • mP(positive control): mP in the positive control well
According to the calculated inhibition rate at each concentration, the IC50 value of each compound was calculated by XLFit excel add-in version 5.4.0.8 software.

[2] = target: PDE4B2 (Homo sapiens (Human), UniProt Q07343); assay: Effect of compounds on PDE4B2 activity (fluorescence polarization kit)
Description: [formula] • I∥ (S535): fluorescence intensity in parallel direction • I⊥ (P535): fluorescence intensity in perpendicular direction • G: G factor=1

[3] = target: PDE4D2 (Homo sapiens (Human), UniProt Q08499); assay: Effect of compounds on PDE4D2 activity (fluorescence polarization kit); assay type: biochemical
Experimental: FP was usually represented by mP value.
[formula] • I∥ (S520): fluorescence intensity in parallel direction • I⊥ (P520): fluorescence intensity in perpendicular direction • G: G factor=1
as §1
According to the calculated inhibition rate at each concentration, the IC50 value of each compound was calculated by GraphPad Prism 8 software.

[4] = tested on: human peripheral blood mononuclear cells (TNF-α release); assay: Inhibition of LPS-induced TNF-α release from human peripheral blood mononuclear cells in vitro; assay type: cell-based; settings: 4 h; for IC50: read-out: Re IC50; for Emax: read-out: Max inhibition (%)
Experimental: 5. Detection of Inhibitory Activity of Compounds on the Release of Tumor Necrosis Factor-α (TNF-α) from Human Peripheral Blood Mononuclear Cells Induced by Lipopolysaccharide (LPS) In Vitro
The concentration of hPBMC cells was adjusted to 0.25×10^6 cells/mL with RPMI1640 medium and inoculated into a 96-well plate in an amount of 50000 cells per well. […] Incubation was carried out for 4 h in an incubator at 37° C. and 5% CO2. The cell supernatant was collected, and the content of TNF-α in the supernatant sample was detected by human TNF-α Elisa quantitative test kit (Sino Biological, Cat #KIT10602). The IC50 value was calculated using GraphPad Prism software.

[5] = Pharmacokinetic test in beagle dogs; assay type: in vivo; settings: for half-life: read-out: T½ (converted)
Experimental: 8.1 Experimental animals: Male beagle dogs, about 8-11 kg, 6 beagle dogs/compound, purchased from Beijing Marshall Biotechnology Co., Ltd.
8.2 Experimental method: On the day of the experiment, 6 beagle dogs were randomly grouped according to their body weights. The animals were fasted with water available for 12 to 14 h one day before the administration and were fed 4 h after the administration. Administration was carried out according to Table 10.

[6] = Pharmacokinetic test in mice; assay type: in vivo, ICR mice; settings: for half-life: read-out: T½ (converted)
Experimental: 6.1 Experimental animals: Male ICR mice, 20-25 g, 6 mice/compound, purchased from Chengdu Ddossy Experimental Animals Co., Ltd.
6.2 Experiment design: On the day of the experiment, 6 ICR mice were randomly grouped according to their body weights. The animals were fasted with water available for 12 to 14 h one day before the administration and were fed 4 h after the administration.

[7] = Pharmacokinetic test in rats; assay type: in vivo; settings: male, SD
Experimental: 7.1 Experimental animals: Male SD rats, about 220 g, 6-8 weeks old, 6 rats/compound, purchased from Chengdu Ddossy Experimental Animals Co., Ltd.
7.2 Experiment design: On the day of the experiment, 6 SD rats were randomly grouped according to their body weights. The animals were fasted with water available for 12 to 14 h one day before the administration and were fed 4 h after the administration.

[8] = relative IC50, hPBMC, 100 ng/mL LPS
[9] = Homo sapiens, PBMC, hPBMC, 100 ng/mL LPS
[10] = male, iv, beagle dog plasma, i.v. 1 mg/kg
[11] = male, po, beagle dog plasma, i.g. 3 mg/kg
[12] = male, ICR, iv, mouse plasma, i.v. 2.5 mg/kg
[13] = male, ICR, po, mouse plasma, i.g. 10 mg/kg

Chain of PDE4B2 (Q07343 other isoform, or with tags, fused parts or gaps): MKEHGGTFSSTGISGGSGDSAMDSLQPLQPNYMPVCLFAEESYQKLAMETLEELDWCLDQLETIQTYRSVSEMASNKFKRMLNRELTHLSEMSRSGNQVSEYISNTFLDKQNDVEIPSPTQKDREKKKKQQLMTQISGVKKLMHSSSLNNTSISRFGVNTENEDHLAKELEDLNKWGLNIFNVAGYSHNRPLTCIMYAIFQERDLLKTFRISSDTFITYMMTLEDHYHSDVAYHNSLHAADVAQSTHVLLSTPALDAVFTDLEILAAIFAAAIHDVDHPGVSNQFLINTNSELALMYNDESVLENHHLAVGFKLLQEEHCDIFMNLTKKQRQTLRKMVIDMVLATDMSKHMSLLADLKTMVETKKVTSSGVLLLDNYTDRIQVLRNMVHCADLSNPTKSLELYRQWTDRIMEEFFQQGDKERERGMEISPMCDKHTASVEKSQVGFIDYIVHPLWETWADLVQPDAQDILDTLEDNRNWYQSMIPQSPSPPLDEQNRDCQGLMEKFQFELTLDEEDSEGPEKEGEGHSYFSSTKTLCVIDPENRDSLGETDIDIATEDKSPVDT
Chain of PDE4B1 (Q07343 whole entry): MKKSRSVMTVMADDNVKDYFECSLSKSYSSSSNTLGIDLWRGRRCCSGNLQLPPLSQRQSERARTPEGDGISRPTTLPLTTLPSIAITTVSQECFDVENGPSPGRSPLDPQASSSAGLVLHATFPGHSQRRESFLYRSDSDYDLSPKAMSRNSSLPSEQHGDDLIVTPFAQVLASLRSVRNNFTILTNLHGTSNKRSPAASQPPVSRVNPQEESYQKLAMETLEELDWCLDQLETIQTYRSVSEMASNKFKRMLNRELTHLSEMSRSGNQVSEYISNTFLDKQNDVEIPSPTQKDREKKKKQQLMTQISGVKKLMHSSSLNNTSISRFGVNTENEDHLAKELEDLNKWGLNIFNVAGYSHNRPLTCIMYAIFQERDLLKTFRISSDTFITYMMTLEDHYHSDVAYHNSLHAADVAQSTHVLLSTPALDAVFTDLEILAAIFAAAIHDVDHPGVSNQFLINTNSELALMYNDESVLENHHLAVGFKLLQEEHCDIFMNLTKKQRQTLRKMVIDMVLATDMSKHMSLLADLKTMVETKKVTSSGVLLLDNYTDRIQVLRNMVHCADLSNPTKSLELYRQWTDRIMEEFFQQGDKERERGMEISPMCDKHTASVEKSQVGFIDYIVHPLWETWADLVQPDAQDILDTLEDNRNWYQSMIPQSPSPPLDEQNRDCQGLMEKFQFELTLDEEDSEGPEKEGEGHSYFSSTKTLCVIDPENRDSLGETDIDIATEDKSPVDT
Chain of PDE4D2 (Q08499 303-809, change not shown): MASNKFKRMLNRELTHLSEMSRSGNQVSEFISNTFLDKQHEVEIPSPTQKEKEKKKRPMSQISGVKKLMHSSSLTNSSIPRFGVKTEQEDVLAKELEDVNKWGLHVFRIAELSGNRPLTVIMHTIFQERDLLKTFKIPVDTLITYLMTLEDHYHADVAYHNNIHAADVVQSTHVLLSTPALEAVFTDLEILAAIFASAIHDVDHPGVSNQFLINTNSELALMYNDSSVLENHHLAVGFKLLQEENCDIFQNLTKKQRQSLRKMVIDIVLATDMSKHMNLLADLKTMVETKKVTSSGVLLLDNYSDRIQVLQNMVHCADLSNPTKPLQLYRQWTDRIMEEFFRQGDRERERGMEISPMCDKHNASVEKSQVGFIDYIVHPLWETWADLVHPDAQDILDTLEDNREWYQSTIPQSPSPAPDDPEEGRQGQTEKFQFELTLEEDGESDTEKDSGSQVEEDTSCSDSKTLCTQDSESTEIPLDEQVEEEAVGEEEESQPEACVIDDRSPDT

IC50 [3]	IC50 [2]	IC50 ([4]; Homo sapiens, PBMC)	Compound	IC50 ([2]; read-out: PDE4B2 IC50)	Max inhibition (%) ([4]; hPBMC, 100 ng/mL LPS)	IC50 [4, 8]	Emax [4, 9]	other results
< 10 nM	–	–	[O-][S@@+]1CCCc2nc(N3CC=C(c4ccc(Cl)cc4)CC3)nc(NC3(CO)CCC3)c21 [Compound 8-2]	–	–	–	–	IC50 [1]: < 10 nM
< 10 nM	–	–	[O-][S@@+]1CCCc2nc(N3CC=C(c4ncc(Cl)cn4)CC3)nc(NC3(CO)CCC3)c21 [Compound 9-2]	–	69.47%	10 to 50 nM	–	IC50 [1]: < 10 nM
–	–	–	[O-][S@+]1CCCc2nc(N3CCC(c4ccc(Cl)cc4)CC3)nc(NC3(CO)CCC3)c21 [Compound 10-2]	–	–	–	–	IC50 [1]: 10 to 50 nM
10 to 50 nM	–	–	[O-][S@@+]1CCCc2nc(N3CCN(c4ccc(Cl)cc4)CC3)nc(NC3(CO)CCC3)c21 [Compound 11-1]	–	–	–	–	IC50 [1]: < 10 nM
< 10 nM	< 10 nM	< 10 nM	CC(C)(COC(N)=O)Nc1nc(N2CC=C(c3ncc(Cl)cn3)CC2)nc2c1[S@+]([O-])CC2 [Compound 51]	–	–	–	69%	F ([5]; beagle dog, i.g. 3 mg/kg): 74.9 ± 11%; AUC(0-t) [5, 10]: 4990 ± 239 ng·h/mL; clearance [5, 10]: 3.06 ± 0.18 mL/min/kg; half-life [5, 10]: 768 ± 228 min; Vd ([5]; male, iv, beagle dog plasma, i.v. 1 mg/kg, read-out: Vdss): 3.08 ± 0.61 L/kg; AUC(0-t) [5, 11]: 11200 ± 1710 ng·h/mL; half-life [5, 11]: 966 ± 330 min; AUC(0-t) [6, 12]: 5420 ± 926 ng·h/mL; clearance [6, 12]: 7.81 ± 1.4 mL/min/kg; half-life [6, 12]: 169 ± 13.8 min; Vd ([6]; male, ICR, iv, mouse plasma, i.v. 2.5 mg/kg, read-out: Vdss): 1.29 ± 0.039 L/kg; AUC(0-t) [6, 13]: 30100 ± 5360 ng·h/mL; half-life [6, 13]: 200 ± 34.8 min; F ([6]; mouse, i.g. 10 mg/kg): >98%
< 10 nM	< 10 nM	< 10 nM	CC(C)(COC(N)=O)Nc1nc(N2CC=C(c3ncc(C4CC4)cn3)CC2)nc2c1[S@+]([O-])CC2 [Compound 84]	–	–	–	68%	AUC(0-t) ([7]; iv, rat plasma, i.v. 2.5 mg/kg): 16500 ng·h/mL; clearance ([7]; iv, rat plasma, i.v. 2.5 mg/kg): 2.54 ± 0.32 mL/min/kg; Vd ([7]; iv, rat plasma, i.v. 2.5 mg/kg, read-out: Vdss): 0.324 ± 0.012 L/kg; bioavailability ([7]; plasma, po, rat, i.g. 10 mg/kg): 78.9 ± 32%; AUC(0-t) ([7]; po, rat plasma, i.g. 10 mg/kg): 52200 ng·h/mL
< 10 nM	< 10 nM	< 10 nM	CC#Cc1ccc(C2=CCN(c3nc4c(c(NC5(COC(N)=O)CCC5)n3)[S@+]([O-])CC4)CC2)nc1 [Compound 98]	–	–	–	72.7%	–
< 10 nM	< 10 nM	< 10 nM	CC#Cc1ccc(C2=CCN(c3nc4c(c(NC5(CNC(=O)OC)CCC5)n3)[S@+]([O-])CC4)CC2)nc1 [Compound 100]	–	–	–	79.2%	–
< 10 nM	< 10 nM	< 10 nM	CC#Cc1ccc(C2=CCN(c3nc4c(c(NC(C)(C)COC(N)=O)n3)[S@+]([O-])CC4)CC2)nc1 [Compound 101]	–	–	–	80%	–
10 to 50 nM	10 to 50 nM	10 to 50 nM	CNC(=O)OCC(C)(C)Nc1nc(N2CC=C(c3ncc(Cl)cn3)CC2)nc2c1[S@+]([O-])CC2 [Compound 104]	–	–	–	78.8%	–
< 10 nM	< 10 nM	< 10 nM	C#Cc1ccc(C2=CCN(c3nc4c(c(NC(C)(C)COC(N)=O)n3)[S@+]([O-])CC4)CC2)nc1 [Compound 105]	–	–	–	84%	–
10 to 50 nM	10 to 50 nM	10 to 50 nM	COC(=O)NCC(C)(C)Nc1nc(N2CC=C(c3ncc(C4CC4)cn3)CC2)nc2c1[S@+]([O-])CC2 [Compound 117]	–	–	–	86%	–
10 to 50 nM	–	–	CC#Cc1cnc2c(c1)OC[C@@H]1CN(c3nc4c(c(NC(C)(C)CNC(=O)OC)n3)[S@+]([O-])CC4)CCN21 [Compound 140-1]	10 to 50 nM	93.38%	< 10 nM	–	–
50 to 100 nM	–	–	CC#Cc1cnc2c(c1)OC[C@H]1CN(c3nc4c(c(NC(C)(C)CNC(=O)OC)n3)[S@+]([O-])CC4)CCN21 [Compound 140-2]	10 to 50 nM	89.58%	10 to 50 nM	–	–

Compound	IC50 [3]	IC50 [2]	IC50 ([4]; Homo sapiens, PBMC)	IC50 ([2]; read-out: PDE4B2 IC50)	Max inhibition (%) ([4]; hPBMC, 100 ng/mL LPS)	IC50 [4, 8]	Emax [4, 9]	other results
[O-][S+]1CCCc2nc(N3CCC(c4ncc(Cl)cn4)CC3)nc(NC3(CO)CCC3)c21 (centres unmarked) [Compound 3]	< 10 nM	–	–	10 to 50 nM	–	–	–	IC50 [1]: < 10 nM
C#Cc1cnc(C2=CCN(c3nc4c(c(NC5([C@H](C)O)CCC5)n3)[S@+]([O-])CC4)CC2)nc1 [Compound 96-2]	< 10 nM	–	–	< 10 nM	81.63%	< 10 nM	–	–
C#Cc1cnc(C2=CCN(c3nc4c(c(NC5([C@H](C)O)CCC5)n3)[S@@+]([O-])CC4)CC2)nc1 [Compound 96-4]	10 to 50 nM	–	–	10 to 50 nM	70.23%	10 to 50 nM	–	–
CC(C)(COC(N)=O)Nc1nc(N2CC=C(c3ncc(N4CC[Si](C)(C)CC4)cn3)CC2)nc2c1[S@+]([O-])CC2 [Compound 106]	10 to 50 nM	–	–	10 to 50 nM	98.36%	10 to 50 nM	–	–
CN1C[C@@H](Nc2nc(N3C[C@H]4CN(c5ccc6c(c5)CC6)C[C@H]4C3)nc3c2[S@@+]([O-])CC3)CCC1=O [Compound 109-4]	< 10 nM	–	–	< 10 nM	85.74%	< 10 nM	–	–
CC#Cc1cnc2c(c1)OC[C@@H]1CN(c3nc4c(c(NC(C)(C)COC(N)=O)n3)[S@+]([O-])CC4)CCN21 [Compound 112-1]	10 to 50 nM	–	–	< 10 nM	83.76%	10 to 50 nM	–	–
COC(=O)NCC(C)(C)Nc1nc(N2C[C@@H]3CC(c4ncc5c(n4)CC5)=C[C@@H]3C2)nc2c1[S@+]([O-])CC2 [Compound 139-1]	< 10 nM	–	–	< 10 nM	92.69%	< 10 nM	–	–
